Several values for one entry are separate records, joined by “and”; a condition that tells them apart may be missing. Equal values may be shown once.
Assays:
Experiment in all cases: radiometric filter-binding kinase assay
RIPK2 (human) = RIPK2 (human) (UniProt O43353); conditions: compound 1.0 µM
[1] = biological target: STK11 CAB39 STRADA (human) (UniProt Q9Y376+Q7RTN6+Q15831); conditions: compound 1.0 µM
PTK6 (human) = PTK6 (human) (UniProt Q13882); conditions: compound 1.0 µM
MARK2 (human) = MARK2 (human) (UniProt Q7KZI7); conditions: compound 1.0 µM
ZAP70 (human) = ZAP70 (human) (UniProt P43403); conditions: compound 1.0 µM
NUAK1 (human) = NUAK1 (human) (UniProt O60285); conditions: compound 1.0 µM
MAP2K6 (human) = MAP2K6 (human) (UniProt P52564); conditions: compound 1.0 µM
MAP2K6 (human), sequence (P52564 whole entry, looked up): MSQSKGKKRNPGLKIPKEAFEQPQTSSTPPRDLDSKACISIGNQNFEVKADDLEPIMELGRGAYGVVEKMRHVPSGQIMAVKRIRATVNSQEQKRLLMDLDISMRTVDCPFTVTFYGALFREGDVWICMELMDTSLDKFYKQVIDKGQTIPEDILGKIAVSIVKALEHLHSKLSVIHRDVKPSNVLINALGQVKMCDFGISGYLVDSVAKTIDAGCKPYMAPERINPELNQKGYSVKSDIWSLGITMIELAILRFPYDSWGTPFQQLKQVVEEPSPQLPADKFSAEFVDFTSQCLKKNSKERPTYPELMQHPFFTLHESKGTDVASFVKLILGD

MARK4 (human) = MARK4 (human) (UniProt Q96L34); conditions: compound 1.0 µM
EPHB4 (human) = EPHB4 (human) (UniProt P54760); conditions: compound 1.0 µM
MAP2K2 (human) = MAP2K2 (human) (UniProt P36507); conditions: compound 1.0 µM
JAK2 JH1 JH2 (human) = JAK2 JH1 JH2 (human) (UniProt O60674); conditions: compound 1.0 µM
[2] = test system: PAK2 (human), Q13177 [T402E]; conditions: compound 1.0 µM
MAPK13 (human) = MAPK13 (human) (UniProt O15264); conditions: compound 1.0 µM
HIPK3 (human) = HIPK3 (human) (UniProt Q9H422); conditions: compound 1.0 µM
MAPK10 (human) = MAPK10 (human) (UniProt P53779); conditions: compound 1.0 µM
BRSK1 (human) = BRSK1 (human) (UniProt Q8TDC3); conditions: compound 1.0 µM
EPHB1 (human) = EPHB1 (human) (UniProt P54762); conditions: compound 1.0 µM
GCK (human) = GCK (human) (UniProt Q12851); conditions: compound 1.0 µM
GCK (human), sequence (Q12851 whole entry, looked up): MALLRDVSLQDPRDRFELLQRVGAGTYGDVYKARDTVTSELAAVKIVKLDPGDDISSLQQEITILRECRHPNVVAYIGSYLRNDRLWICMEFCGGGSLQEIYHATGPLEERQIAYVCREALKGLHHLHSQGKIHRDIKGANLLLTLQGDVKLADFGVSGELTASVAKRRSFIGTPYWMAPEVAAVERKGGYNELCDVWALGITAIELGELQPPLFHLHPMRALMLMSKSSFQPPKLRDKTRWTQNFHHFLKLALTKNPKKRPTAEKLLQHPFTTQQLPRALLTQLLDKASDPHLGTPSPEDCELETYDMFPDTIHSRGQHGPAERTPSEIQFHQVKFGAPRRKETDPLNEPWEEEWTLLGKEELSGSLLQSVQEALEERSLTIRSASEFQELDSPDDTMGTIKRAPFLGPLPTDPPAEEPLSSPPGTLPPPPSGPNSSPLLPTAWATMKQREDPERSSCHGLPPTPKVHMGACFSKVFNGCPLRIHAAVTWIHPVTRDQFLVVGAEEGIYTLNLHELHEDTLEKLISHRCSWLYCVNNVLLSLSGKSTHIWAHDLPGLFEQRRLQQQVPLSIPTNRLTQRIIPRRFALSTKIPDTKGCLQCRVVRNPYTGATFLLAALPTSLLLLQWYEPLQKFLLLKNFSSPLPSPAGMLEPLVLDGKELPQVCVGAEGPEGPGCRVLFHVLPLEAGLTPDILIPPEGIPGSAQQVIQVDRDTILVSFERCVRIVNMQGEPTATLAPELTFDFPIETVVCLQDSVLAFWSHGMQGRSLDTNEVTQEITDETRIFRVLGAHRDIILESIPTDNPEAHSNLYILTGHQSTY

AURKA (human) = AURKA (human) (UniProt O14965); conditions: compound 1.0 µM
MAP3K1 (human) = MAP3K1 (human) (UniProt Q13233); conditions: compound 1.0 µM
RPS6KA5 KD1 KD2 (human) = RPS6KA5 KD1 KD2 (human) (UniProt O75582)
TEK (human) = TEK (human) (UniProt Q02763); conditions: compound 1.0 µM
TEK (human), sequence (Q02763 whole entry, looked up): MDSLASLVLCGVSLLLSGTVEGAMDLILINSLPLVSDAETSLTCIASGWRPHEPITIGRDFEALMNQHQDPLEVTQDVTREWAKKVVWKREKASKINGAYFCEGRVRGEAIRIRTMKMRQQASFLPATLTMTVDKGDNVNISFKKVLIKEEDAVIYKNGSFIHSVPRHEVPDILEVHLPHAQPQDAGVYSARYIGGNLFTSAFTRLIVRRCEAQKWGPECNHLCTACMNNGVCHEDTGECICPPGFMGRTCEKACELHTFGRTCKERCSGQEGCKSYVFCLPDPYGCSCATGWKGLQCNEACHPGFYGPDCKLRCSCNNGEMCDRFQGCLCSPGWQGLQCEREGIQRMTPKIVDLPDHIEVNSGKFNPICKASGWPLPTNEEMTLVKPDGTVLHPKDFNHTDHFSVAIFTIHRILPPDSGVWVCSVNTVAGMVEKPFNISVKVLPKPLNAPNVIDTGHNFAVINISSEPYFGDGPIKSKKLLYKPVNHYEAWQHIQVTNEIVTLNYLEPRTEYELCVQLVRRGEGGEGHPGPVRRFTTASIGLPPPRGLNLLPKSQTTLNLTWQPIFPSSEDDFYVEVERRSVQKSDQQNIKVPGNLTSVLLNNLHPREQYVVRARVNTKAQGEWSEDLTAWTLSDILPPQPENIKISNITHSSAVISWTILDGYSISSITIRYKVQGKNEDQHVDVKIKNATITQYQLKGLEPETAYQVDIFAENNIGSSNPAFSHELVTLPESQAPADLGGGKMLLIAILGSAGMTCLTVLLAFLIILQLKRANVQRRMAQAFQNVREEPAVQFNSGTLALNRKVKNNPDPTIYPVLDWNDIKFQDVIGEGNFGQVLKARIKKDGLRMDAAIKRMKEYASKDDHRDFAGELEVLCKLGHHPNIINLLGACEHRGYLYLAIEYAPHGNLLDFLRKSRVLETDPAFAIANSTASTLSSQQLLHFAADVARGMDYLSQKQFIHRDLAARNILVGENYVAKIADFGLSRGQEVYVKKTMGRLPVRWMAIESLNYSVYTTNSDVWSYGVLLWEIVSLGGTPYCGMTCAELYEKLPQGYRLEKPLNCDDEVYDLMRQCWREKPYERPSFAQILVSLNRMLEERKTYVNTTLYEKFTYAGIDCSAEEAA

STK33 (human) = STK33 (human) (UniProt Q9BYT3); conditions: compound 1.0 µM
STK16 (human) = STK16 (human) (UniProt O75716); conditions: compound 1.0 µM
STK16 (human), sequence (O75716 whole entry, looked up): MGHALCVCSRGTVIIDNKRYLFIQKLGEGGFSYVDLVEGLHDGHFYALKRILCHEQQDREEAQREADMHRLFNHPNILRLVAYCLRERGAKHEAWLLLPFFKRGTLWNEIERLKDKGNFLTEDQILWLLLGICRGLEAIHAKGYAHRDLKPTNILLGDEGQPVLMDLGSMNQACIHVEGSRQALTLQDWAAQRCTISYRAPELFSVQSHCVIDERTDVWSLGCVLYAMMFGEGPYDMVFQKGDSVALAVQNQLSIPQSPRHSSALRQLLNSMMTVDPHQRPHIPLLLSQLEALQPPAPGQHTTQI

ABL1 (human) = ABL1 (human) (UniProt P00519); conditions: compound 1.0 µM
MARK1 (human) = MARK1 (human) (UniProt Q9P0L2); conditions: compound 1.0 µM
MAP3K5 (human) = MAP3K5 (human) (UniProt Q99683); conditions: compound 1.0 µM
MINK1 (human) = MINK1 (human) (UniProt Q8N4C8); conditions: compound 1.0 µM
TAOK1 (human) = TAOK1 (human) (UniProt Q7L7X3); conditions: compound 1.0 µM
IRAK4 (human) = IRAK4 (human) (UniProt Q9NWZ3); conditions: compound 1.0 µM
INSR (human) = INSR (human) (UniProt P06213); conditions: compound 1.0 µM
INSR (human), sequence (P06213 whole entry, looked up): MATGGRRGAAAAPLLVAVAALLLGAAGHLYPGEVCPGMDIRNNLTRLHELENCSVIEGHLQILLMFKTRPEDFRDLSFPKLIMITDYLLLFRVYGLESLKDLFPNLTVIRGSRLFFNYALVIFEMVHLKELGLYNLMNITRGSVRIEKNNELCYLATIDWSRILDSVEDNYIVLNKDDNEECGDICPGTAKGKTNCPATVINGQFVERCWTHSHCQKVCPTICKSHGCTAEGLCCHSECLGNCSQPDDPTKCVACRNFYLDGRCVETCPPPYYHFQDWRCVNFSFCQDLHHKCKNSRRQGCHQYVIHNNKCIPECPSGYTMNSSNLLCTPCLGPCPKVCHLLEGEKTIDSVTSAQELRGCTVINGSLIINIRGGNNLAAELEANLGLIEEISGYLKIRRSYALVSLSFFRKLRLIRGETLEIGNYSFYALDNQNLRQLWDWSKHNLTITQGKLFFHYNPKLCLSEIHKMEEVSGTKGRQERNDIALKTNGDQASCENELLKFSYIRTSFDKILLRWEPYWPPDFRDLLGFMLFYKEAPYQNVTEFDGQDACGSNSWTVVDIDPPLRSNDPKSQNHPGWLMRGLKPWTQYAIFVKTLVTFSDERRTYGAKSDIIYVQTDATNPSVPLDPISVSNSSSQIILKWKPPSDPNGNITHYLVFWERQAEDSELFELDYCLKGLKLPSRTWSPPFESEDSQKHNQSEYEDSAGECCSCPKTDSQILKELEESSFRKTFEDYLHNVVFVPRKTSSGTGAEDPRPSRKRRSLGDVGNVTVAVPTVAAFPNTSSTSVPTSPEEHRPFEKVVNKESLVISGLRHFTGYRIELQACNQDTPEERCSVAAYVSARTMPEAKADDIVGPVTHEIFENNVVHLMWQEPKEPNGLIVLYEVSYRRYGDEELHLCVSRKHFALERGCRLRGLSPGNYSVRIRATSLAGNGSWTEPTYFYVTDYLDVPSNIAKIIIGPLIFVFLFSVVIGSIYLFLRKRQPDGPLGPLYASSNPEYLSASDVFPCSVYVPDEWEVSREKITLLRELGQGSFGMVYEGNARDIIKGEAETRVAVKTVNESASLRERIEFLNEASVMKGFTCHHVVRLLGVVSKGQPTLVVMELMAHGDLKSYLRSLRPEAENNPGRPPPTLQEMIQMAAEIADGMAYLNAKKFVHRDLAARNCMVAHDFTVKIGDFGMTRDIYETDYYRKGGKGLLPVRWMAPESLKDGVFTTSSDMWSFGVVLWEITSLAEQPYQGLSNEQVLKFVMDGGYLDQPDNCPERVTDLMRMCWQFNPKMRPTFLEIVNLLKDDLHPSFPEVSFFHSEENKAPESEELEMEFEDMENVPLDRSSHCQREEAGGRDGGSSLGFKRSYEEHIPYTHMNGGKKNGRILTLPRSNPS

EPHA4 (human) = EPHA4 (human) (UniProt P54764); conditions: compound 1.0 µM
EPHA4 (human), sequence (P54764 whole entry, looked up): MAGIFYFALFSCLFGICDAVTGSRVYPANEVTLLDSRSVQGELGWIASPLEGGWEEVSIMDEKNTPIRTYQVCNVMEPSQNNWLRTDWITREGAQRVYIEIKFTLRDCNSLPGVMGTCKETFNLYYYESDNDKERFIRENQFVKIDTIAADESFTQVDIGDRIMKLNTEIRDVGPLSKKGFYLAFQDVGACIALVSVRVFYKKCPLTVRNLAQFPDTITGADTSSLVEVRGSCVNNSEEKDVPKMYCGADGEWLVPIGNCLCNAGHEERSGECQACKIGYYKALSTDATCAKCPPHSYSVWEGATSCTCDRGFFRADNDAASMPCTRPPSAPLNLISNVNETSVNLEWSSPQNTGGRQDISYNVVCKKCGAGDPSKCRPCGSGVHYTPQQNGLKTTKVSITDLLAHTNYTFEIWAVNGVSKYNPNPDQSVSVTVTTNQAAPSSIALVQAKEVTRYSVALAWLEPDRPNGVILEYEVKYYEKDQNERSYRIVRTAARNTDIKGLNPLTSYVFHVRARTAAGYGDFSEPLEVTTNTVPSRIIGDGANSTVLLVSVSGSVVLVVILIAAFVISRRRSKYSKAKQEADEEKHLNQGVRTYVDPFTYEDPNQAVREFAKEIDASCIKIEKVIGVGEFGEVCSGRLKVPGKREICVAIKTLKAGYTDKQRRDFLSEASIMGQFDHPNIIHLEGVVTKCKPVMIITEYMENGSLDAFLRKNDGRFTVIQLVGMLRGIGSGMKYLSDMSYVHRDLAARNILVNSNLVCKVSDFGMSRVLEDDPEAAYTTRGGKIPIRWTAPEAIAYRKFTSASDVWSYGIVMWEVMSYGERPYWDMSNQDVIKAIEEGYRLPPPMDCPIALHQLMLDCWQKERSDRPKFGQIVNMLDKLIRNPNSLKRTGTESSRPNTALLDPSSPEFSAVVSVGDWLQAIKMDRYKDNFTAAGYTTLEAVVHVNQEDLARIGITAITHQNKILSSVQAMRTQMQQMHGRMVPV

MAP3K11 (human) = MAP3K11 (human) (UniProt Q16584); conditions: compound 1.0 µM
PDPK1 (human) = PDPK1 (human) (UniProt O15530); conditions: compound 1.0 µM
DYRK1A (human) = DYRK1A (human) (UniProt Q13627); conditions: compound 1.0 µM

Compound | residual activity (RIPK2 (human)) [%] | residual activity [1] [%] | residual activity (PTK6 (human)) [%] | residual activity (MARK2 (human)) [%] | residual activity (ZAP70 (human)) [%] | residual activity (NUAK1 (human)) [%] | residual activity (MAP2K6 (human)) [%] | residual activity (MARK4 (human)) [%] | residual activity (EPHB4 (human)) [%] | residual activity (MAP2K2 (human)) [%] | residual activity (JAK2 JH1 JH2 (human)) [%] | residual activity [2] [%] | residual activity (MAPK13 (human)) [%] | residual activity (HIPK3 (human)) [%] | residual activity (MAPK10 (human)) [%] | residual activity (BRSK1 (human)) [%] | residual activity (EPHB1 (human)) [%] | residual activity (GCK (human)) [%] | residual activity (AURKA (human)) [%] | residual activity (MAP3K1 (human)) [%] | other results
Oc1ccc2c(c1)oc1c3ccccc3c(O)cc21 | 107 | 71 | 103 | 87 | 90 | 88 | 92 | 99 | 103 | 102 | 117 | 87 | 95 | 63 | 105 | 73 | 107 | 65 | 103 | 67 | residual activity (RPS6KA5 KD1 KD2 (human); compound 1.0 µM): 105%; residual activity (TEK (human)): 112%; residual activity (STK33 (human)): 85%; residual activity (STK16 (human)): 85%; residual activity (ABL1 (human)): 83%; residual activity (MARK1 (human)): 88%; residual activity (MAP3K5 (human)): 87%; residual activity (MINK1 (human)): 87%; residual activity (TAOK1 (human)): 99%; residual activity (IRAK4 (human)): 75%; residual activity (INSR (human)): 98%; residual activity (EPHA4 (human)): 100%; residual activity (MAP3K11 (human)): 76%
COc1ccc2c(c1)[nH]c1c(C)nccc12 | 107 | 94 | 112 | 80 | 100 | 96 | 95 | 89 | 101 | 99 | 92 | 89 | 88 | 118 | 81 | 83 | 103 | 68 | 93 | 89 | residual activity (PDPK1 (human)): 99% and 115%; residual activity (DYRK1A (human)): 2%; residual activity (TEK (human)): 112%; residual activity (STK33 (human)): 97%; residual activity (STK16 (human)): 92%; residual activity (ABL1 (human)): 111%; residual activity (MARK1 (human)): 88%; residual activity (MAP3K5 (human)): 95%; residual activity (MINK1 (human)): 101%; residual activity (TAOK1 (human)): 111%; residual activity (IRAK4 (human)): 59%; residual activity (INSR (human)): 100%; residual activity (EPHA4 (human)): 97%; residual activity (MAP3K11 (human)): 105%
Oc1ccc2c(c1)C(O)c1cc(O)ccc1-2 | – | – | – | – | – | – | – | – | – | – | – | – | – | – | – | – | – | – | – | – | residual activity (RPS6KA5 KD1 KD2 (human); compound 20.0 µM): 85%

Reference: the kinase profiling compilation of Christmann-Franck et al. (2016)
